Data published in patent publication US8859819B2, “Sulphurated derivatives of resorcinol, preparation of same and cosmetic uses thereof” (Pierre Fabre Dermo-Cosmetique, priority 2009, dated 2014).
pIC50: −log10 of the molar value. ≈ marks a conversion by molar mass, not a printed value.

Assays:
mushroom tyrosinase [1] = target: T1, mushroom tyrosinase (Agaricus bisporus, UniProt C7FF04); test: Tyrosinase inhibition test (in vitro acellular depigmenting activity); assay type: biochemical; conditions: class symbol; assay from 250 to 150 μM; overall tyrosinase activity (MPMOg), L-tyrosine substrate
T1 construct: purchased Sigma T-3824
T1 sequence (C7FF04 1-392 limits assumed): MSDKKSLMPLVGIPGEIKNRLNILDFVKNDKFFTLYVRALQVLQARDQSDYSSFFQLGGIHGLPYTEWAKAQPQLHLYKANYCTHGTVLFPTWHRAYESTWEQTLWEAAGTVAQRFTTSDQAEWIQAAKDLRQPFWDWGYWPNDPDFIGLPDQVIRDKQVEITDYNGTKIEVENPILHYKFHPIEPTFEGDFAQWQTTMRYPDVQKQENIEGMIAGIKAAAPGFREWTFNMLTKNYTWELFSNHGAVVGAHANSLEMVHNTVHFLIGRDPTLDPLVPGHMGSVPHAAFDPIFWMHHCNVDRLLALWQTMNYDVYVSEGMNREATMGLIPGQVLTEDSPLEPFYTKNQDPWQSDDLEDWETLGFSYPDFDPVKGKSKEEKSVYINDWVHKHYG
Excerpt: A) Determination of the Depigmenting Activity in an in vitro Acellular Test: Tyrosinase Inhibition Test)
This test is used to evaluate the depigmenting activity of the molecules tested. Tyrosinase is a limiting enzyme in melanogenesis.
It belongs to the family of oxydoreductases. It has in particular the function: monophenol monooxygenase (MPMO) and polyphenol oxidase (PPO).
It is synthesised at the level of the melanocytes. It is activated during its migration towards melanosome […]. It transforms tyrosine into DOPA then dopaquinone, which leads in fine to a polymerisation, i.e. a production of pigments (see diagram below).
The substrate: L-tyrosine, is transformed into L-DOPA by the monophenol mono oxygenase function which is transformed by the polyphenol oxidase function from tyrosinase into dopaquinone. The latter is going to self-oxidise into dopachrome which is measured by spectrophotometry at 490 nm.
More precisely, it is the overall tyrosinase activity (MPMOg) which is measured since it is the dopachrome in fine that is assayed. Thus the products tested on MPMOg (=measurement of the activity on PPO and MPMO) can cumulate the inhibition of the 2 functions, • inhibiting uniquely the MPMO function stricto sensus (transformation of tyrosine into DOPA) as a complement to the PPO test, • could inhibit PPO uniquely. General Experimental Conditions:

[2] = Protection of linoleic acid following a UV stress (Fenton conditions, MDA-TBA assay); parameters: % Protection Linoleic acid under UV/Fenton: concentration or dose not given beside the values; conditions: UV + H2O2 + iron II
Excerpt: D) Test of Protection of Linoleic Acid Following a UV Stress. Target: Protection of Linoleic Acid Under Fenton Conditions, UV Irradiation Linoleic acid belongs to the family of polyunsaturated fatty acids (PUFA) (AGPI). Sensitive to oxidation, linoleic acid is a favoured target for oxygenated free radicals (OFR) in biological media. When biological membranes are exposed to an oxidative stress, the components the most affected are the phospholipids constituted of PUFA and cholesterol. Their degradation leads to lipidic peroxidation and generally to destructuring. Lipidic peroxidation is a self-catalysing process which generally involves OFR. Lipidic peroxidation is in part responsible for skin ageing. The method employed to evaluate lipid peroxidation is based on the coupling of thiobarbituric acid (TBA) and secondary degradation products leading to coloured compounds detectable by spectrofluorometry. The essential secondary compound of final degradation is malondialdehyde, MDA. MDA is a carcinogenic and mutagenic aldehyde, it acts on proteins and DNA. The sample to be tested is placed in contact with linoleic acid in a weight/weight ratio. The sample undergoes an MED (Minimal Erythemal Dose) irradiation under Fenton conditions, namely in the presence of H202 and iron II in a solar simulator. Following irradiation, the reaction mixture is taken up in methanol and derivatised at 90° C. with TBA. Chromogene, the MDA-TBA complex, representative of the equimolar production of MDA is assayed by fluorimetry (excitation at 525 nm, emission at 549 nm). The results are expressed in fluorescence units, as a function of a MDA-TBA control range then expressed as concentration of the MDA-TBA complex. Then, the percentage of the starting MDA/linoleic acid (LA) ratio is determined. Then the percentage of protection of linoleic acid is determined. The product assay is expressed as weight/weight ratio, in other words in weight percentage with respect to the total quantity of linoleic acid. The maximal MDA level is determined by the condition UV+H202+iron II (F). The percentage of protection of linoleic acid represents: the % ratio of MDA under maximal stress conditions untreated over the % of MDA under stress conditions treated by the product.

B16-F10 cells = test: Melanin assay test in B16-F10 cells; assay type: cell-based, murine; conditions: Mus musculus, B16-F10, 72 h; read-out: B16 activity results -% at X μM
Description: B) Melanin Assay Test in B16-F10 Cells:
This involves a test of measuring the synthesis of melanin by colorimetric assay on a murine melanoma cell line: the B16-F10 line. This test makes it possible to evaluate the depigmenting power of active ingredients.
The B16-F10 cells are cultured in 96-well plates in DMEM medium supplemented with FCS (foetal calf serum), and incubated for 24 hours at 37° C., 5% CO2. The cells are then stimulated with 0.1 μM α-MSH (to stimulate the synthesis of melanin, the stimulation observed is around 150%) and treated for 72 hours with the active ingredients to be tested. Each concentration of active ingredient is tested at least in triplicate. The total melanin followed by the intracellular melanin dissolved in the lysis buffer are then assayed by absorbance reading at 405 nm. The total proteins are assayed in the lysate and the results are expressed in mg melanin/mg proteins. The percentage of activity is calculated as follows: […]
A negative value indicates an inhibition, whereas a positive value indicates an induction of the synthesis of melanin.
• B16-F10 cell line between P10 and P20 (murine melanocytes) (ATCC, CRL-6475)
Reagents: • DMEM without phenol red (GibcoBRL, 31053-028), 200 mM Glutamax-I Supplement (GibcoBRL, 35050-038), D-PBS (GibcoBRL, 14190-094), Foetal calf serum (Invitrogen, 10270-098), Trypsine-EDTA (GibcoBRL, 25300-054), NaOH (Sigma, S8045-500G), DMSO (Sigma, 471267-1L), Nle, Phe—Melanocyte Stimulating Hormone (Sigma, M-8764), Melanin (Sigma, M-0418), BCA-Copper (Sigma, B9643 and C2284), BSA (Sigma, P0914) C) Test for the Study of the Antioxidant Capacity by Chemiluminescence (Photochem Analytik Jena) Principle: […]

[3] = Antioxidant capacity by chemiluminescence (Photochem Analytik Jena); conditions: for μg of sample for 1 μg of Trolox: Trolox equivalent, lower = stronger antioxidant
Description: This test is used to determine the antioxidant capacity of the molecules. It is a method that generates free radicals by a photochemical signal. The intensity of the oxidation is 1000 times greater than that obtained under normal conditions.
The detection is carried out by chemiluminescence. It enables the evaluation of hydrosoluble and liposoluble anti-oxidant molecules or extracts.
The results are expressed respectively in equivalent quantity of vitamin C or Trolox (6-hydroxy-2,5,7,8-tetramethylchroman-2-carboxylic acid). The sensitivity is of the order of a nanomole.
The antioxidant activity studied in this test represents the capacity to trap specifically superoxide anions by chemiluminescence.
The quantified results are expressed in Trolox equivalent (standard), i.e. in “μg of product for 1 μg of Trolox”. This signifies that a quantity×of sample is needed to obtain an activity equivalent to the activity detected for 1 μg of standard. It is an anti-oxidant power relative to a reference, which makes it possible to disregard the concentration tested.
The superoxide radical: 02^0− is generated by a photochemical reaction: L+hv (UV)+O2→L*O2→L^0++O2^0−
A part of the superoxide anions is quenched by the anti-oxidants. The remaining free radicals are quantified by chemiluminescence. L^0++O2^0−→N2+AP*^2−→AP^2−+hv (luminescence)

[4] = system: P. acnes IP53.117 ATCC6919; test: Minimal inhibitory concentration (MIC), microdilution; assay type: cell-based, Propionibacterium acnes; conditions: for MIC: Cutibacterium acnes, P. acnes IP53.117 ATCC6919
Description: (§1) E) Determination of the Minimal Inhibitory Concentration (MIC): This test is used to determine the antibacterial activity of a compound. Tests are carried out with 4 bacterial strains using the principle of microdilution. The MIC are determined by micromethod in liquid medium. The successive dilutions according to the products tested in the culture broth (Trypcase soy) are carried out on 96 well microplates in a final volume of 0.1 ml. The wells are seeded with 0.01 ml of bacterial suspensions titrated at around 10^7 UFC/ml. The microplates are incubated under optimal growth conditions and the MIC is read visually.

[5] = system: Staphylococcus epidermidis IP6821; test: as above; assay type: cell-based
Description: as §1

[6] = system: Staphylococcus aureus IP4.83 ATCC6538; test: as above; assay type: cell-based
Description: as §1

[7] = system: Escherichia coli IP53126 ATCC8739; test: as above; assay type: cell-based
Description: as §1

mushroom tyrosinase [8] = target: T1, mushroom tyrosinase; test: Tyrosinase inhibition test (in vitro acellular depigmenting activity); assay type: biochemical; conditions: polyphenol oxidase (PPO) function; reference molecules for the test

| Structure (SMILES) | Tyrosinase depigmenting activity result (mushroom tyrosinase [1]) | % Protection Linoleic acid under UV/Fenton [2] [%] | inhibition at 20 µM (B16-F10 cells) [%] | μg of sample for 1 μg of Trolox [3] | MIC [4] [µg/mL] | MIC [5] [µg/mL] | MIC [6] [µg/mL] | inhibition at 10 µM (B16-F10 cells) [%] | antibacterial activity against Propionibacterium acnes (in words) [4] | MIC [7] [µg/mL] | pIC50 (mushroom tyrosinase [8]) | Activity (antioxidant, interpretation scale) ([3]; reference products of the interpretation scale) |
| --- | --- | --- | --- | --- | --- | --- | --- | --- | --- | --- | --- | --- |
| CCCCOc1cc(O)ccc1Sc1ccc(O)cc1O [Example 5, 4-(2-butoxy-4-hydroxyphenylthio)benzene-1,3-diol] | + + + | 89 | 27 | 2.8 μg of sample for 1 μg of Trolox | 3 (≈ 9.79 µM) | 3 (≈ 9.79 µM) | 6 (≈ 19.6 µM) | – | – | – | – | – |
| CCCCCCCCOc1cc(O)ccc1Sc1ccc(O)cc1O [Example 7, 4-(4-hydroxy-2-(octyloxy)phenylthio)benzene-1,3-diol] | + + + | 92 | – | 3.4 μg of sample for 1 μg of Trolox | 0.09 (≈ 0.248 µM) | 0.39 (≈ 1.08 µM) | 0.78 (≈ 2.15 µM) | 50 | strong antibacterial activity | 390 (≈ 1080 µM) | – | – |
| CCCCCCCCCCOc1cc(O)ccc1Sc1ccc(O)cc1O [Example 12, 4-(2-(decyloxy)-4-hydroxyphenylthio)benzene-1,3-diol] | – | 96 | – | 3.4 μg of sample for 1 μg of Trolox | 0.09 (≈ 0.23 µM) | 0.39 (≈ 0.999 µM) | 0.78 (≈ 2 µM) | – | strong antibacterial activity | 780 (≈ 2000 µM) | – | – |
| CCCCCCCCCCCCCCCCOc1cc(O)ccc1Sc1ccc(O)cc1O [Example 13, 4-(2-(hexadecyloxy)-4-hydroxyphenylthio)benzene-1,3-diol] | – | 95 | – | 5.7 μg of sample for 1 μg of Trolox | 90 (≈ 190 µM) | 156 (≈ 329 µM) | 190 (≈ 400 µM) | – | – | – | – | – |
| O=C1O[C@H]([C@@H](O)CO)C(O)=C1O [Vitamin C, reference compound] | – | – | – | – | – | – | – | – | – | – | 4.40 to 4.70 | Very good (0.1 to 3.0) |
